From PubChem BioAssay (NCI) come the findings set out here.

What all share (test): NCI tumour cell line growth inhibition, 48 h
The test system of experiment [1] is COLO 205 colon.
Experiment [2] concerns HCT-116 colon.
Experiment [3] relates to HL-60(TB) leukemia.
Experiment [4] has as its system HOP-62 NSCLC.
Experiment [5] deals with KM12 colon.
For experiment [6], the system named is MALME-3M melanoma.
The subject of experiment [7] is RXF 393 renal.
In experiment [8] the test system is SF-268 CNS.
Experiment [9] deals with SK-MEL-2 melanoma.
The subject of experiment [10] is U251 CNS.

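Values below derive from 48-hour exposures of cells grown in 96-well plates, with endpoints linearly interpolated between the two concentrations bracketing the appropriate inhibition level. At the TGI there is no net growth.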

Take `CC1(C)[C@@H]2C[C@H]1C(Cc1ccc(C[C@H]3c4cc(-c5ccccn5)ncc4[C@H]4C[C@@H]3C4(C)C)cc1)c1cc(-c3ccccn3)ncc12` (stereo not given in full): the TGI in experiment [1] was determined as 13.7 µM; in [2], 18.3 µM; in [3], 2.28 µM; in experiment [4], 11 µM; in [5], 38.4 µM; in experiment [6], 76.6 µM. Moreover, the TGI in experiment [7] was 77.8 µM; in experiment [8], 28.6 µM; in experiment [9] it was above 100 µM; in experiment [10] it was 19.7 µM.
With `COc1ccc(C2CCC(Cl)(OC)CC2C=O)cc1` (stereo not given), the TGI in experiment [1], in [2], in [3], in experiment [4], in [5] and in experiment [6] was above 100 µM throughout. The TGI is 43.9 µM in experiment [7], 97.3 µM in experiment [8], above 100 µM in experiment [9] and above 100 µM in experiment [10].
As to `CO/C(=N\N=C\c1ccc(OC)cc1OC)c1ccncc1`, the TGI in experiment [1], in experiment [2], in experiment [3], in [4], in [5] and in experiment [6] was above 10 µM each time. Also, the TGI in [7], in experiment [8], in experiment [9] and in [10] was above 10 µM each time.
Turning to `O=[N+]([O-])/C(Cl)=C(\Nc1ccccc1)C(Cl)=C(Cl)Cl`, the TGI in experiment [1] is 39.5 µM; in experiment [2], above 100 µM; in experiment [3], 40.1 µM; in experiment [4] it was 56.6 µM; in experiment [5], 32 µM; in experiment [6] it was 45.9 µM. The TGI was above 100 µM in experiment [7], above 100 µM in [8], 91.6 µM in experiment [9] and above 100 µM in [10].
Regarding `Cc1nccc2c1cnc1ccnn12`, the TGI in [1], in experiment [2], in [3], in experiment [4], in experiment [5] and in experiment [6] was above 100 µM throughout. In addition, the TGI in experiment [7], in experiment [8], in experiment [9] and in experiment [10] was above 100 µM in each case.
On to `CCOC(=O)c1cc(C2CCN(CC(C)CC)C2=S)c(C(=O)/C=C(/C)N)[nH]1` (stereo not given), for which the TGI in experiment [1], in experiment [2], in [3], in experiment [4], in experiment [5] and in experiment [6] was above 50 µM in each case. Moreover, the TGI in experiment [7], in experiment [8], in [9] and in experiment [10] was above 50 µM throughout.
With `CCC(CC)C(=O)OC[n+]1cccc(-c2c(COC(=O)NC(C)C)c(COC(=O)NC(C)C)c3n2CCC3)c1`, the TGI in experiment [1], in [2], in experiment [3], in experiment [4], in [5] and in experiment [6] was above 100 µM each time. Further, the TGI in [7], in experiment [8], in [9] and in experiment [10] was above 100 µM each time.
As for `CC(=O)n1nc(-c2nc3ccccc3nc2Cl)cc1Cl`, the TGI in experiment [1] is 33.2 µM; in experiment [2] it was 25.4 µM; in experiment [3], 35 µM; in experiment [4] it was 73.8 µM; in [5] it was 48.5 µM; in experiment [6], above 78.7 µM. Also, the TGI in experiment [7] was above 100 µM; in [8] it was above 100 µM; in experiment [9] it was above 100 µM; in [10] it was above 77.6 µM.
As for `COc1ccc2nc3cc([N+](=O)[O-])ccc3c(NNc3ccc(Cl)cc3)c2c1`, the TGI in [1] is 60.8 µM; in [2], above 55.7 µM; in experiment [3] it was above 73.8 µM; in experiment [4], above 78.8 µM; in experiment [5], above 100 µM; in [6], above 100 µM. Further, the TGI was above 83.4 µM in [7], above 100 µM in [8], 59.4 µM in experiment [9] and 74.6 µM in [10].
As for `COc1ccc(-c2onc(-c3c(C)cc(C)cc3C)c2C2=NCCCN2)cc1`, the TGI is above 100 µM in [1]; above 100 µM in experiment [2]; 38.6 µM in experiment [3]; above 100 µM in experiment [4]; above 100 µM in [5]; above 100 µM in experiment [6]. Further, the TGI is above 100 µM in experiment [7], above 100 µM in [8], 97.7 µM in experiment [9] and 57.9 µM in experiment [10].
Take `CC(C)C[C@H](NC(=O)CCc1ccccc1)B(O)O`: the TGI in experiment [1] was found to be 75.3 µM; in experiment [2] it was 18.6 µM; in experiment [3], 8.8 µM; in experiment [4] it was 46.9 µM; in experiment [5] it was 32.8 µM; in [6] it was 32.9 µM. Also, the TGI in [7] was 19.1 µM; in [8], 59.4 µM; in experiment [9], 39.4 µM; in experiment [10], above 100 µM.
As for `C/C(=N\NS(=O)(=O)c1ccc(C)cc1)C(CN(C)C)C(c1ccccc1)c1c(O)c2ccccc2oc1=O` (stereo not given), the TGI in experiment [1], in [2], in experiment [3], in [4], in experiment [5] and in experiment [6] was above 100 µM in each case. For the same molecule, the TGI in experiment [7], in experiment [8], in [9] and in experiment [10] was above 100 µM in each case.
`Cc1ccc(S(=O)(=O)NC(=O)NCC(=O)NCC(=O)O)cc1`: the TGI in experiment [1], in experiment [2], in [3], in experiment [4], in experiment [5] and in experiment [6] was above 100 µM throughout. Besides, the TGI in experiment [7], in experiment [8], in [9] and in experiment [10] was above 100 µM each time.
Take `CC(=O)OC1OC2C(NC(=O)OC(C)(C)C)C1CC2(OCc1ccccc1)OCc1ccccc1` (stereo not given): the TGI in experiment [1] was determined as 41.5 µM; in experiment [2], 31.6 µM; in [3], 35.2 µM; in experiment [4], 76.3 µM; in experiment [5], 71.5 µM; in [6] it was 20.8 µM. In addition, the TGI is 32.2 µM in [7], above 100 µM in experiment [8], 38.9 µM in [9] and 32.4 µM in experiment [10].
As for `COc1ccc(C2SC(N)=Nc3c2c(C)nn3C(=O)c2ccc(Cl)cc2)cc1` (stereo not given), the TGI in [1], in experiment [2], in experiment [3], in experiment [4], in [5] and in [6] was above 10 µM each time. For the same molecule, the TGI in experiment [7], in experiment [8], in experiment [9] and in experiment [10] was above 10 µM each time.
On to `Cc1cc(S(=O)(=O)Nc2nc(N)nc(N3CCOCC3)n2)c(SCC(=O)O)cc1Cl`, for which the TGI in experiment [1], in [2], in experiment [3], in experiment [4], in experiment [5] and in experiment [6] was above 10 µM each time. Further, the TGI in experiment [7], in experiment [8], in experiment [9] and in experiment [10] was above 10 µM in each case.
Consider `NC(C(F)(F)F)(C(F)(F)F)P(=O)(c1ccccc1)c1ccccc1`, for which the TGI in experiment [1], in experiment [2], in experiment [3], in experiment [4], in experiment [5] and in [6] was above 100 µM throughout. The TGI in experiment [7], in experiment [8], in experiment [9] and in experiment [10] was above 100 µM each time.
Consider `Nc1nc(Cl)cc(NCC2(CO)CCC2)n1`, for which the TGI in [1], in [2], in experiment [3], in [4], in experiment [5] and in experiment [6] was above 100 µM in each case. In addition, the TGI in experiment [7], in experiment [8], in experiment [9] and in [10] was above 100 µM each time.
With `Cc1[nH]n(-c2nc3c(c(=O)[nH]2)CCC3)c(=O)c1CCO`, the TGI in experiment [1], in experiment [2], in experiment [3], in experiment [4], in [5] and in experiment [6] was above 100 µM each time. For the same molecule, the TGI in experiment [7], in [8], in [9] and in experiment [10] was above 100 µM throughout.
As to `Cc1cnc2[nH]c(-c3ccc(F)cc3)cc(=O)c2c1`, the TGI is above 52.7 µM in [1]; above 100 µM in experiment [2]; 20.4 µM in [3]; above 83.1 µM in experiment [4]; above 100 µM in experiment [5]; above 100 µM in [6]. In addition, the TGI in [7] was above 100 µM; in experiment [8], above 100 µM; in [9], above 82.1 µM; in [10], above 91.8 µM.
